Measured values taken from US11484032B2, “Compositions for inhibition of insect sensing” (Vanderbilt University, priority 2011, dated 2022).

Assays:
Assay type in all cases: cell-based
Orco (AgORco) = biological target: T1, Orco (AgORco) (Anopheles gambiae, UniProt Q7QCC7); experiment: Fluo-4 Ca2+ imaging, HEK293 cells expressing Orco alone; details: for Emax: HEK293, read-out: Orco Agonist % value Of VUAA1; for EC50: read-out: Orco Agonist EC50
T1 construct: expressed in transfected cells
T1 sequence (Q7QCC7 1-478): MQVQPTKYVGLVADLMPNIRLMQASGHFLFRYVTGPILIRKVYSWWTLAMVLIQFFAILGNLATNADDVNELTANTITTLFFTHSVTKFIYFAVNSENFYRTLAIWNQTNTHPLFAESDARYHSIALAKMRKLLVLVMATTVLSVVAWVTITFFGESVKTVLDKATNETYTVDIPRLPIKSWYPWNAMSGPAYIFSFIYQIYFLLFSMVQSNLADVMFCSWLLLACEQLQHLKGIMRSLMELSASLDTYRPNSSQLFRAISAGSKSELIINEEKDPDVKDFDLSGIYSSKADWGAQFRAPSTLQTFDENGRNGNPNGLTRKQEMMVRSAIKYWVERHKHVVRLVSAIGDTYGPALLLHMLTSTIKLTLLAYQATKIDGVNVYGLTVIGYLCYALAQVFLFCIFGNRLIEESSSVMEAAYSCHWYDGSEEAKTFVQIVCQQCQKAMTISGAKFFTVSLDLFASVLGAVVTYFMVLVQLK
Excerpt: (§1) For transient transfections, ORs were cloned into pCl (Promega) and transfected into Flp-In™ T-REx™293 cell lines (Invitrogen) with Fu GENE6 (Roche). For the creation of stable cell lines, a cell culture expression vector capable of expressing Orco in conjunction with a conventional OR, pcDNA5/FRT/TO (Invitrogen) was modified to create two individual expression cassettes each under the control of a separate CMV/Tet02 promoter and a BGH poly-adenylation signal. Cells (as above) were transfected with the modified pcDNA5 plasmid along with POG44 (a Flp recombinase expression plasmid) to facilitate site-specific recombination. Stable cell lines were selected using Hygromycin B (Invitrogen). Cells were maintained in DMEM (Invitrogen) supplemented with 10% Tetracycline-free FBS (HyClone) and 15 ng/ml Blasticidin. For fluorometric Ca2+ measurements, stable lines expressing ORs of interest were seeded at 20,000 cells/well in black wall, poly-lysine coated 384-well cell culture plates (Greiner) and treated with […] tetracycline (Sigma) overnight to induce OR expression. Cells were dye-loaded with 1.8 uM Fluo-4 AM (Molecular Probes), 2.5 mM Probenecid (Molecular Probes) in assay buffer (20 mM HEPES, IX HBSS) for 45 minutes at 37° C. in 5% CO2 prior to each assay. Ca^2+ mobilization was assayed in an FDSS6000 (Hamamatsu). Baseline readings were taken for 20 s before automated addition of compound previously diluted in DMSO and assay buffer. Ratios were described as Maximum/Minimum response and each response was normalized to the maximum responder.

AgORco+AgOR10 = biological target: T2, AgORco+AgOR10 (Anopheles gambiae, UniProt Q7QCC7); experiment: Fluo-4 Ca2+ imaging, HEK293 cells expressing Orco+AgOR10; parameters: Orco 10 + Orco Angatonist % Reduction / Orco 10 + Orco Agonist % of control: concentration or dose not given beside the values; details: 10 + Orco; for Orco 10 + Orco Agonist, compared with VUAA1: agonist mode, qualitative, relative to VUAA1; for Orco 10 + Orco Angatonist % Reduction: antagonist mode
T2 construct: expressed in transfected cells
T2 sequence (Q7QCC7 1-478): T1 sequence (Q7QCC7 1-478)
Excerpt: as §1
As part of an ongoing, cell based calcium imaging screen for novel small-molecule modulators of AgORs that might disrupt olfactory-driven mosquito behaviors (Rinker et al manuscript in preparation), the inventors identified a number of compounds that activated AgOR10+AgORco-expressing human embryonic kidney (HEK293) cells. One of these compounds, (FIG. 3 A) denoted here as VUAA1, elicited activity consistent with allosteric agonism and was pursued for its novel properties. The identity of VUAA1 was verified using high-resolution mass spectrometry (HRMS) as well as ^1H and ^13C NMR. […] As AgORco was the common element among these functional responses, the inventors postulated that VUAA1 was a potential AgORco agonist.

AgORco+AgOR48 = biological target: T3, AgORco+AgOR48 (Anopheles gambiae, UniProt Q7QCC7); experiment: Ca2+ imaging, HEK cells expressing AgORco+AgOR48; details: for EC50: read-out: Orco + 48 Agonist EC50; for Orco + 48 Agonist EC50 (given only relative to VUAA1): comparison with VUAA1 in words; for Orco + 48 Agonist % value Of VUAA1: relative to VUAA1; for Orco + 48 Agonist EC50 (relative to VUAA1): stated in words relative to VUAA1
T3 construct: expressed in transfected cells
T3 sequence (Q7QCC7 1-478): T1 sequence (Q7QCC7 1-478)
Excerpt: as §1
The ability of VUAA1 and its analogs to agonize representative ORco proteins from dipteran (Anopheles gambiae, AgORco), lepidopteran (Heliothis virescens, HvORco) and hymenopteran (Harpegnathos saltator, HsORco) orders was tested. […] Furthermore, the hierarchy of VUAA series potency was the same, irrespective of whether AgORco was co-expressed with AgOR65 or AgOR48 tuning ORs (FIG. 45). Without wishing to be bound by a particular theory, odorant ligands are thought to activate the complex via interaction with the tuning ORx and thereby affect ORco/ORx channel properties. […] These findings indicate VUAA-class OR co-modulators are viable compounds for further development as broad-spectrum insect control strategies, and VUAA4 can provide an advance in the pharmacological profile of VUAA-based compounds.

AgOrco+AgOR65 = biological target: T4, AgOrco+AgOR65 (Anopheles gambiae, UniProt Q7QCC7); experiment: Ca2+ imaging, HEK cells expressing AgOrco+AgOR65; details: Orco + 65; read-out: Orco + 65 Agonist EC50
T4 construct: expressed in transfected cells
T4 sequence (Q7QCC7 1-478): T1 sequence (Q7QCC7 1-478)
Excerpt: as §1
For VUAA0, a single methyl from the para position of the aniline ring (compound VUAA0, FIG. 44) in the VUAA1 structure was removed. […] In VUAA0.5, unsaturation was introduced at the para position of the aniline ring (VUAA0.5, FIG. 44). […] In VUAA2, the ethyl group of the aniline ring in VUAA1 was replaced with an isopropyl group (VUAA2, FIG. 44).

SMILES | Emax (Orco (AgORco)) [%] | EC50 (Orco (AgORco); Orco alone) [µM] | EC50 (AgORco+AgOR48; Orco + 48) [µM] | Orco + 48 Agonist % value Of VUAA1 (AgORco+AgOR48; Orco + 48) | also measured
CCCc1ccc(NC(=O)CSc2nnc(-c3cccnc3)n2CC)cc1 | 87 | 63 | 19.8 | – | Orco 10 + Orco Agonist, compared with VUAA1 (AgORco+AgOR10): <VUAA1
CCn1c(SCCC(=O)Nc2ccc(C(C)C)cc2)nnc1-c1cccnc1 | – | – | 2.2 | – | –
CCn1c(SCC(=O)Nc2ccc(Br)cc2F)nnc1-c1cccnc1 | – | 192 | – | – | Orco Agonist value compared with VUAA1 (Orco (AgORco); Orco alone, qualitative, relative to VUAA1): <VUAA1; Orco 10 + Orco Agonist, compared with VUAA1 (AgORco+AgOR10): <VUAA1; Orco 10 + Orco Angatonist % Reduction (AgORco+AgOR10): 0.00%
CCn1c(SCC(=O)N2CCc3cc(Br)ccc32)nnc1-c1cccnc1 | 59 | 55 | – | – | Orco 10 + Orco Agonist, compared with VUAA1 (AgORco+AgOR10): >VUAA1; Orco 10 + Orco Angatonist % Reduction (AgORco+AgOR10): 59%
CCc1ccc2c(c1)CCN2C(=O)CSc1nnc(-c2cccnc2)n1CC | 121 | 35 | 12.8 | – | Orco 10 + Orco Agonist, compared with VUAA1 (AgORco+AgOR10): >VUAA1
CCc1ccc(NC(=O)CSc2nnc(-c3ccncc3)n2CC)cc1 | – | – | – | <VUAA1 | Orco + 48 Agonist EC50 (given only relative to VUAA1) (AgORco+AgOR48; Orco + 48): <VUAA1
C=Cc1ccc(NC(=O)CSc2nnc(-c3ccncc3)n2CC)cc1 | – | – | – | <VUAA1 | Orco + 48 Agonist EC50 (given only relative to VUAA1) (AgORco+AgOR48; Orco + 48): <VUAA1
CCn1c(SCC(=O)Nc2ccc(C(C)C)cc2)nnc1-c1ccncc1 | 136 | 7.4 | 3.5 | 112% | EC50 (AgOrco+AgOR65): 8.2 µM
CCn1c(SCC(=O)Nc2ccc(C(C)C)cc2)nnc1-c1ccnc(F)c1 | 38 | 100 | 75.2 | 62% | –
CCCc1ccc(NC(=O)CSc2nnc(-c3ccncc3)n2CC)cc1 | – | – | – | <VUAA1 | Orco + 48 Agonist EC50 (given only relative to VUAA1) (AgORco+AgOR48; Orco + 48): <VUAA1
CCn1c(SCC(=O)Nc2ccc(Br)cc2F)nnc1-c1ccncc1 | – | – | – | <VUAA1 | Orco + 48 Agonist EC50 (given only relative to VUAA1) (AgORco+AgOR48; Orco + 48): <VUAA1
C=CCn1c(SCC(=O)Nc2ccc(C(C)C)cc2)nnc1-c1ccncc1 | – | – | – | – | Orco + 48 Agonist % value Of VUAA1 (AgORco+AgOR48; Orco + 48, agonist): <VUAA1; Orco + 48 Agonist EC50 (relative to VUAA1) (AgORco+AgOR48; Orco + 48, agonist): <VUAA1
CCCc1ccc(NC(=O)CSc2nnc(-c3ccncc3)n2C2CC2)cc1 | – | – | – | – | Orco + 48 Agonist % value Of VUAA1 (AgORco+AgOR48; Orco + 48, agonist): <VUAA1; Orco + 48 Agonist EC50 (relative to VUAA1) (AgORco+AgOR48; Orco + 48, agonist): <VUAA1
C=Cc1ccc(NC(=O)CSc2nnc(-c3ccncc3)n2C2CC2)cc1 | – | – | – | – | Orco + 48 Agonist % value Of VUAA1 (AgORco+AgOR48; Orco + 48, agonist): <VUAA1; Orco + 48 Agonist EC50 (relative to VUAA1) (AgORco+AgOR48; Orco + 48, agonist): <VUAA1
